Patent US20260001872A1, “BENZISOTHIAZOLE COMPOUND AND APPLICATION THEREOF, AND PHARMACEUTICAL COMPOSITION AND APPLICATION THEREOF” (Picomole Therapeutics (Liaoning) Co., Ltd., priority 2022, published 2026)
Values joined by “and” are separate entries in the source; they are usually repeats but may differ in a detail not shown here. Identical values can stand only once. Counter-ions that a name gives are not always drawn.

Columns and labels:
[1] = in vivo; cited from earlier work
[2] = tested on: premature ejaculation model in Wistar rats after PCA induction; assay: premature ejaculation model in Wistar rats after PCA induction; format: in vivo; settings: for Actual ejaculation number / First contractive latency / First ejaculation latency / Seminal vesicle basal pressure (mmHg) / Seminal vesicle peak pressure (mmHg) / The number of seminal vesicle contractions: individual rats, within 30 min after PCA induction
Method: Male Wistar rats with body weight of about 300 g were subjected to a one-week acclimation period before the experiment began. On the day of the experiment, the animals were anesthetized with intraperitoneal (i.p.) injection of Zoletil 50 at 20 mg/kg combined with xylazine at 8 mg/kg, and then subjected to body temperature maintenance at 37° C. using a thermostatically controlled heating pad. The common carotid artery was exposed and cannulated with a PE50 catheter for real-time monitoring of arterial pressure (systolic blood pressure, diastolic blood pressure, and mean arterial pressure). The seminal vesicle and corpus cavernosum muscle of the animals were exposed. Seminal vesicle pressure and corpus cavernosum electromyographic (EMG) stabilized baseline were recorded for 10 min. In the dapoxetine group, the medications were administrated via tail vein intravenous (i.v.) injection; in the to-be-tested compound group, the to-be-tested compound was administrated orally (in the PE model group, the to-be-tested compound was substituted with vehicles); after 1 min, PCA (5 mg/kg) was intraperitoneally (i.p.) injected to induce the PE model; and recording of seminal vesicle pressure profiles and electromyographic (EMG) activity variations in the bulbocavernosus muscle continued to be performed for 30 min.
• A. The actual ejaculation number and the first ejaculation latency in animals within 30 min • B. The number of seminal vesicle contractions, the first contractive latency, basal pressure, and peak pressure within 30 min
The experimental data was represented by mean±S.E.M. and statistically analyzed by GraphPad Prism 7.0 software. One-way analysis of variance (One-way ANOVA) was used for comparison among multiple groups, and Dunnett't-test was used for statistical analysis in Post hoc test; and the comparison between two groups was statistically analyzed using Student's t-test. P<0.05 indicates a significant difference.

[3] = Dapoxetine 2 mg/kg i.v. + PCA 5 mg/kg i.p., hydrochloride
[4] = statistical analysis, PCA-induced model
[5] = 0.125 mg/kg p.o. + PCA 5 mg/kg i.p.
[6] = 0.5 mg/kg p.o. + PCA 5 mg/kg i.p.
[7] = 2 mg/kg p.o. + PCA 5 mg/kg i.p.
[8] = 2 mg/kg p.o. + PCA 5 mg/kg i.p., listed as A002

CN(C)[C@@H](CCOc1cccc2ccccc12)c1ccccc1 [Dapoxetine, Dapoxetine hydrochloride, reference compound]
bioavailability [1]: 42% | Actual ejaculation number [2, 3]: 1 (2×) and 0 (2×) and 2 | First contractive latency [2, 3]: 1448 s and 1705 s and 1800 s and 1749 s and 866 s | First ejaculation latency [2, 3]: 1558 s and 1800 s (2×) and 1256 s and 967 s | Seminal vesicle basal pressure (mmHg) [2, 3]: 5.16 mmHg and 4.97 mmHg and 5.37 mmHg and 5.88 mmHg and 4.96 mmHg | Seminal vesicle peak pressure (mmHg) [2, 3]: 6.89 mmHg and 8.1 mmHg and 6.46 mmHg and 6.78 mmHg and 7.03 mmHg | The number of seminal vesicle contractions [2, 3]: 1 (3×) and 0 and 3 | initial seminal vesicle contractive latency compared with the PE model group ([2]; P<0.01, P<0.001, FIG. 4): significant increase | contraction number of the corpus cavernosum muscle (conclusion) [2, 4]: decrease | ejaculation latency (conclusion) [2, 4]: effectively prolong | ejaculation number (conclusion) [2, 4]: significantly decrease | seminal vesicle pressure (conclusion) [2, 4]: reduce

c1ccc2nn(CCCCN3CCN(c4nsc5ccccc45)CC3)nc2c1 [A001]
Actual ejaculation number [2, 5]: 2 (2×) and 6 (2×) and 1 | First contractive latency [2, 5]: 1278 s and 824 s and 889 s and 1207 s and 1558 s | First ejaculation latency [2, 5]: 1456 s and 916 s and 985 s and 1380 s and 1667 s | Seminal vesicle basal pressure (mmHg) [2, 5]: 5.79 mmHg and 6.18 mmHg and 6.05 mmHg and 4.78 mmHg and 3.89 mmHg | Seminal vesicle peak pressure (mmHg) [2, 5]: 13.46 mmHg and 16.77 mmHg and 20.06 mmHg and 11.05 mmHg and 9.81 mmHg | The number of seminal vesicle contractions [2, 5]: 5 and 9 and 8 and 4 and 3 | Actual ejaculation number [2, 6]: 2 (3×) and 0 (2×) | First contractive latency [2, 6]: 1186 s and 1298 s and 1317 s and 1800 s (2×) | First ejaculation latency [2, 6]: 1256 s and 1382 s and 1477 s and 1800 s (2×) | Seminal vesicle basal pressure (mmHg) [2, 6]: 5.76 mmHg and 5.88 mmHg and 5.79 mmHg and 3.67 mmHg and 3.87 mmHg | Seminal vesicle peak pressure (mmHg) [2, 6]: 11.87 mmHg and 10.66 mmHg and 9.08 mmHg and 4.86 mmHg and 5.23 mmHg | The number of seminal vesicle contractions [2, 6]: 3 and 4 (2×) and 0 (2×) | Actual ejaculation number [2, 7]: 0 | First ejaculation latency [2, 7]: 1800 s | First contractive latency [2, 8]: 1568 s and 1800 s (4×) | Seminal vesicle basal pressure (mmHg) [2, 8]: 4.05 mmHg and 4.17 mmHg and 4.86 mmHg and 4.18 mmHg and 3.88 mmHg | Seminal vesicle peak pressure (mmHg) [2, 8]: 9.67 mmHg and 6.04 mmHg and 5.18 mmHg and 4.98 mmHg and 5.05 mmHg | The number of seminal vesicle contractions [2, 8]: 2 and 0 (4×)
